In PubChem BioAssay (NCI) one finds GI50 and TGI data, which are given here for 17 molecules.

Holding throughout (test): NCI anticancer screen, dose series, 48 h
The test system of experiment [1] is HCT-116 colon.
Experiment [2] concerns HL-60(TB) leukemia.
In experiment [3] the test system is OVCAR-5 ovarian.
For experiment [4], the system named is SF-268 CNS.
Experiment [5] relates to HS 578T breast.
Experiment [6] concerns HT29 colon.
Experiment [7] relates to A549 NSCLC.
In experiment [8] the test system is MDA-MB-435.

Each structure is given as a SMILES string.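 96-well plates; 48 h exposure; 5 concentrations. Endpoints by linear interpolation between flanking doses. Not reached: highest tested concentration assigned. GI50: concentration for 50% inhibition of growth. At the TGI there is no net growth.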

Turning to `CCCCCCCCCCCCCCCCC(=O)O.CCCCCCCCCCCCCCCCCC(=O)O.CCCCCCCCCCCCCCCCCC(=O)O.CCCCCCCCCCCCCCCCCC(=O)O.CCCCCCCCCCCCCCCCCC(=O)O.CO[CH-]OC12COC1CC(O)C1(C)C(O)C(OC(C)O)C3=C(C)C(OC(=O)C(O)C([NH-])c4ccccc4)CC(O)(C(OC(=O)c4ccccc4)C21)C3(C)C.[Cu+].[Zn].[Zn].[Zn].[Zn].[Zn]` (centres undefined), the GI50 in experiment [1] was 0.00309 µM; in experiment [2], 0.00466 µM; in experiment [3] it was 0.0113 µM; in experiment [5] it was 0.00335 µM; in experiment [6] it was under 0.0025 µM; in experiment [7] it was 0.00818 µM. Moreover, the TGI in experiment [1] is over 25 µM; in experiment [2], over 25 µM; in experiment [3], 4.22 µM; in experiment [4] it was 6.25 µM; in experiment [5], 0.0297 µM; in experiment [6] it was over 25 µM. Further, in experiment [7], the TGI was over 22.3 µM.

On to `COc1ccc(-n2ccnc2-c2cc(OC)c(OC)c(OC)c2)cc1`, for which the GI50 in experiment [1] was 3.9 µM; in experiment [3], 10.1 µM; in experiment [4], 8.69 µM; in experiment [5], 2.08 µM; in experiment [8] it was 0.303 µM; in experiment [6], 1.86 µM. In addition, the GI50 in experiment [7] is 6.57 µM. In addition, the TGI is over 100 µM in experiment [1]; over 100 µM in experiment [3]; over 100 µM in experiment [4]; 8.29 µM in experiment [5]; 1.32 µM in experiment [8]; over 100 µM in experiment [7].

Regarding `COc1cc(/C=C/C(=O)N2CCN(C(=O)c3cc(OC)c(OC)c(OC)c3)CC2)ccc1OCCCOc1cc2c(cc1OC)C(=O)N1CCC[C@H]1C=N2`, the GI50 in experiment [2] is 0.214 µM; in experiment [4] it was 0.284 µM; in experiment [5], 0.31 µM; in experiment [8], 0.178 µM; in experiment [6], 0.34 µM; in experiment [7] it was 0.953 µM. In addition, the TGI in experiment [4] was found to be 4.03 µM; in experiment [5] it was 0.841 µM; in experiment [8], 0.343 µM; in experiment [6], 12.8 µM; in experiment [7], 9.26 µM.

On to `O=S(=O)(/N=c1/scc(-c2ccccc2)n1-c1ccccc1)c1ccc(N2N=C3c4ccccc4CC3C2c2cccs2)cc1` (centres undefined), for which the GI50 in experiment [3] is 88.9 µM; in experiment [4], over 100 µM; in experiment [5], 60.6 µM; in experiment [8] it was 38.7 µM; in experiment [6] it was 82 µM; in experiment [7], 57 µM. Also, the TGI in experiment [3], in experiment [4], in experiment [5], in experiment [8], in experiment [6] and in experiment [7] was over 100 µM each time.

With `O=C(/C(=C\c1ccc(Cl)cc1)c1ccccc1)c1ccccc1`, the TGI in experiment [1] was over 100 µM; in experiment [2], 36.3 µM; in experiment [3], over 100 µM; in experiment [4], over 100 µM; in experiment [6] it was over 100 µM.

As to `CC(=O)Nc1ccc(COC(O)CN2CCCCC2)cc1[N+](=O)[O-]` (centres undefined), the TGI in experiment [1], in experiment [2], in experiment [3], in experiment [4], in experiment [8] and in experiment [6] was over 100 µM in each case. This molecule also returned a TGI in experiment [7] of over 100 µM.

With `CC(C)(C)c1c2c(c(C(C)(C)C)c3c1OCN(Cc1ccccc1)C3)OCN(Cc1ccccc1)C2`, the TGI is 24.4 µM in experiment [1]; 39 µM in experiment [3]; 35.6 µM in experiment [4]; 55.9 µM in experiment [5]; over 100 µM in experiment [8]; 37.6 µM in experiment [6]. This molecule also registered a TGI in experiment [7] of 39.8 µM.

Turning to `Clc1cc(Cl)cc(N2N=C(c3cccc(Nc4ccncc4)c3)CC2c2ccc3c(c2)OCO3)c1` (centres undefined), the GI50 in experiment [1] was 1.7 µM; in experiment [3], 1.83 µM; in experiment [4] it was 1.7 µM; in experiment [8], 1.62 µM; in experiment [6], 2.14 µM. In addition, the TGI was found to be 3.42 µM in experiment [1]; 3.51 µM in experiment [3]; 3.34 µM in experiment [4]; 3.09 µM in experiment [8]; 4.72 µM in experiment [6].

For `O=C(Nc1ccccc1)c1cc(S(=O)(=O)Nc2nc3ccccc3o2)c(SCc2ccccc2)cc1Cl`, the GI50 in experiment [1] was 25.1 µM; in experiment [3], 22.5 µM; in experiment [4], 15.4 µM; in experiment [5], 14.5 µM; in experiment [8], 19 µM; in experiment [6], 43 µM. Moreover, the GI50 in experiment [7] was 21 µM. In addition, the TGI in experiment [1] is 66.1 µM; in experiment [3], 43.3 µM; in experiment [4] it was 41.4 µM; in experiment [5] it was 44.3 µM; in experiment [8] it was 37.7 µM; in experiment [6], over 100 µM. For the same molecule, the TGI in experiment [7] came out at 53.8 µM.

Turning to `NCOC(=O)Cc1ccc(Br)cc1`, the TGI in experiment [1], in experiment [2], in experiment [3], in experiment [4], in experiment [5] and in experiment [6] was over 100 µM each time. In experiment [7], the TGI was over 100 µM.

On to `Cc1cc(C(C)(C)C)cc(CNC2CCCCC2)c1O`, for which the TGI in experiment [1] stood at 28.8 µM; in experiment [3], 31.9 µM; in experiment [4] it was 30.3 µM; in experiment [5] it was 48.7 µM; in experiment [8], 43.4 µM; in experiment [6] it was 33.7 µM. In experiment [7], this molecule gave a TGI of 33.8 µM.

Take `COC1=CC(c2ccc[nH]2)=N/C1=C\c1[nH]c(C)c(C(=O)CCCCC(=O)Oc2ccc3c(c2)CCC2C3CC[C@]3(C)[C@@H](O)CC[C@@H]23)c1C` (some centres undefined): the GI50 in experiment [1] was 3.1 µM; in experiment [2] it was over 100 µM; in experiment [3], over 100 µM; in experiment [4] it was over 100 µM; in experiment [8] it was 5.47 µM; in experiment [7], 6.58 µM. Further, the TGI in experiment [1] is 13.6 µM; in experiment [2], over 100 µM; in experiment [3], over 100 µM; in experiment [4] it was over 100 µM; in experiment [8] it was over 100 µM; in experiment [7], over 100 µM.

In the case of `CC(=O)c1cc(C(=O)c2ccc3c(c2)Sc2ccccc2N3)c2cc(C)ccn12`, the GI50 was 0.0414 µM in experiment [1]; 0.0823 µM in experiment [4]; 0.084 µM in experiment [5]; 0.0627 µM in experiment [6]; 0.0648 µM in experiment [7]. In addition, the TGI in experiment [1], in experiment [4], in experiment [5], in experiment [6] and in experiment [7] was over 100 µM throughout.

With `Cn1c(NCC(O)CN2CCCC2)cc(=O)n(C)c1=O` (centres undefined), the GI50 in experiment [1], in experiment [3], in experiment [4], in experiment [5], in experiment [8] and in experiment [6] was over 100 µM in each case. In addition, in experiment [7], the GI50 was over 100 µM. Moreover, the TGI in experiment [1], in experiment [3], in experiment [4], in experiment [5], in experiment [8] and in experiment [6] was over 100 µM in each case. Further, in experiment [7], the TGI is over 100 µM.

For the molecule `c1ccc2cc(C[n+]3ccn(CCCCCCCCCCn4cc[n+](Cc5ccc6ccccc6c5)c4)c3)ccc2c1`, the GI50 in experiment [1] is 1.55 µM; in experiment [2], 1.25 µM; in experiment [3], 1.87 µM; in experiment [4] it was 0.61 µM; in experiment [5], 1.03 µM; in experiment [8], 0.819 µM. For the same molecule, the GI50 in experiment [6] was 0.715 µM. In addition, the TGI in experiment [1] came out at 15.1 µM; in experiment [2], 2.97 µM; in experiment [3], 9.48 µM; in experiment [4], 12.3 µM; in experiment [5] it was 3.63 µM; in experiment [8], 5.43 µM. Further, the TGI in experiment [6] was 4.74 µM.

Take `COc1cc(/C=C2\C[C@H]3[C@@H]4CC=C5C[C@@H](O)CC[C@]5(C)[C@H]4CC[C@]3(C)[C@H]2O)ccc1OCCCn1ccnc1`: the GI50 in experiment [2] is 2.79 µM; in experiment [3] it was 7.14 µM; in experiment [4], 3.82 µM; in experiment [5], 1.18 µM; in experiment [8], 3.52 µM; in experiment [6], 2.68 µM. For the same molecule, the GI50 in experiment [7] is 1.18 µM. The TGI in experiment [2] was 15.9 µM; in experiment [3], 23.3 µM; in experiment [4], 19.2 µM; in experiment [5] it was 4.24 µM; in experiment [8] it was 12.6 µM; in experiment [6], over 50 µM. Further, in experiment [7], the TGI stood at 2.63 µM.

As for `COc1cc([N+](=O)[O-])c(OC)cc1-c1nc2sc(Cl)cn2c1/C=N/NC1=NCCN1`, the GI50 was 0.249 µM in experiment [1]; 0.878 µM in experiment [3]; 2.22 µM in experiment [5]; 3.65 µM in experiment [8]; 0.269 µM in experiment [6]. Moreover, the TGI in experiment [1] is 0.616 µM; in experiment [3], 2.3 µM; in experiment [5] it was 4.94 µM; in experiment [8], over 100 µM.
